Experimental data published in US8884061B2, “Compositions and methods of use of electron transport system inhibitors” (priority 2006, dated 2014).
In brackets after ≈: the same amount, converted by molar mass. Where two headings read alike, the source gives them in different places.

What was measured:
M. tuberculosis H37Rv = assay: MIC, agar (7H11) dilution method; assay type: cell-based; settings: Mycobacterium tuberculosis, H37RV
MRSE 2442-05053 = assay: MIC, other bacteria (Table 3); assay type: cell-based, S. epidermidis; settings: inoculum size 10^6 CFU/ml
K. pneumoniae ATCC 27736 = assay: MIC, other bacteria (Table 3); assay type: cell-based
E. faecium ATCC 49224 = assay: MIC, other bacteria (Table 3); assay type: cell-based; settings: E. faecium ATCC 49224, GM-resistant, inoculum size 10^6 CFU/ml
MRSA 2441-05262 = assay: MIC, other bacteria (Table 3); assay type: cell-based, S. aureus; settings: inoculum size 10^6 CFU/ml
MRSE 2442-05047 = assay: MIC, other bacteria (Table 3); assay type: cell-based, S. epidermidis; settings: inoculum size 10^6 CFU/ml
MRSA 2441-05223 = assay: MIC, other bacteria (Table 3); assay type: cell-based, S. aureus; settings: inoculum size 10^6 CFU/ml
[1] = test system: M. intracellularae ATCC 15984; assay: MIC, agar (7H11) dilution method; assay type: cell-based; settings: read-out: Minimum inhibitory concentrations (MIC)
MRSA 2441-05254 = assay: MIC, other bacteria (Table 3); assay type: cell-based, S. aureus; settings: inoculum size 10^6 CFU/ml
MRSA 2441-05129 = assay: MIC, other bacteria (Table 3); assay type: cell-based, S. aureus; settings: inoculum size 10^6 CFU/ml
MRSE 2442-05110 = assay: MIC, other bacteria (Table 3); assay type: cell-based, S. epidermidis; settings: inoculum size 10^6 CFU/ml
P. mirabilis ATCC 4630 = assay: MIC, other bacteria (Table 3); assay type: cell-based
E. faecalis ATCC 29212 = assay: MIC, other bacteria (Table 3); assay type: cell-based
M. aurum = assay: MIC, agar (7H11) dilution method; assay type: cell-based; settings: Mycolicibacterium aurum, read-out: Minimum inhibitory concentrations (MIC)
M. avium Flamingo = assay: MIC, agar (7H11) dilution method; assay type: cell-based; settings: Mycobacterium avium, read-out: Minimum inhibitory concentrations (MIC)
S. marsascens ATCC 14756 = assay: MIC, other bacteria (Table 3); assay type: cell-based; settings: inoculum size 10^6 CFU/ml
MRSE 2442-05060 = assay: MIC, other bacteria (Table 3); assay type: cell-based, S. epidermidis; settings: inoculum size 10^6 CFU/ml
M. tuberculosis Kurono = assay: MIC, agar (7H11) dilution method; assay type: cell-based; settings: Mycobacterium tuberculosis; M. tuberculosis Kurono; agar (7H11) dilution; read-out: Minimum inhibitory concentrations (MIC)
MRSA 2441-05112 = assay: MIC, other bacteria (Table 3); assay type: cell-based, S. aureus; settings: inoculum size 10^6 CFU/ml
[2] = test system: S. aureus ATCC 43300 (MRSA); assay: MIC, other bacteria (Table 3); assay type: cell-based; settings: inoculum size 10^6 CFU/ml
MRSA 2441-05104 = assay: MIC, other bacteria (Table 3); assay type: cell-based, S. aureus; settings: inoculum size 10^6 CFU/ml
[3] = test system: E. faecium NCTC 12203 (VRE); assay: MIC, other bacteria (Table 3); assay type: cell-based; settings: high level VCM-resistant, Van A, inoculum size 10^6 CFU/ml
MRSE 2442-05030 = assay: MIC, other bacteria (Table 3); assay type: cell-based, S. epidermidis; settings: inoculum size 10^6 CFU/ml
P. aeruginosa ATCC 27853 = assay: MIC, other bacteria (Table 3); assay type: cell-based
VRSA 2441-T0044 = assay: MIC, other bacteria (Table 3); assay type: cell-based, S. aureus
[4] = test system: E. faecalis ATCC 51299 (VRE); assay: MIC, other bacteria (Table 3); assay type: cell-based; settings: low level VCM-resistant, Van B, inoculum size 10^6 CFU/ml
M. kansasii NIHJ1619 = assay: MIC, agar (7H11) dilution method; assay type: cell-based; settings: Mycobacterium kansasii, read-out: Minimum inhibitory concentrations (MIC)
S. aureus ATCC 29213 = assay: MIC, other bacteria (Table 3); assay type: cell-based
[5] = test system: S. epidermidis ATCC 12228; assay: MIC, other bacteria (Table 3); assay type: cell-based
E. coli ATCC 25922 = assay: MIC, other bacteria (Table 3); assay type: cell-based
[6] = test system: E. faecalis NCTC 12201 (VRE); assay: MIC, other bacteria (Table 3); assay type: cell-based; settings: high level VCM-resistant, Van A, inoculum size 10^6 CFU/ml
M. bovis BCG Tokyo = assay: microbe, parasite or virus in culture; assay type: cell-based; settings: Mycobacterium tuberculosis variant bovis BCG, BCG, read-out: Minimum inhibitory concentrations (MIC)
M. fortuitum NIHJ1615 = assay: MIC, agar (7H11) dilution method; assay type: cell-based; settings: Mycolicibacterium fortuitum, read-out: Minimum inhibitory concentrations (MIC)
MRSE 2442-05118 = assay: MIC, other bacteria (Table 3); assay type: cell-based, S. epidermidis; settings: inoculum size 10^6 CFU/ml
M. smegmatis Takeo = assay: MIC, agar (7H11) dilution method; assay type: cell-based; settings: Mycolicibacterium smegmatis, read-out: Minimum inhibitory concentrations (MIC)
VRSA 2441-T0041 = assay: MIC, other bacteria (Table 3); assay type: cell-based, S. aureus; settings: VRSA 2441-T0041, low level VCM-resistant, inoculum size 10^6 CFU/ml
[7] = Staphylococcus epidermidis, read-out: MIC
[8] = Staphylococcus aureus, read-out: MIC
[9] = Enterococcus faecalis, read-out: MIC

## C=CCN(C)CCCCCCCCOc1ccc(C(O)c2ccc(Cl)cc2)c(Cl)c1 (stereo not shown) [Cpd #21, (4-(8-(allyl(methyl)amino)octyloxy)-2-chlorophenyl)(4-chlorophenyl)methanol]
M. tuberculosis H37Rv; M. tuberculosis H37Rv, table line r9 (3rd of 5 so labelled), read-out: Minimum inhibitory concentrations (MIC)
  MIC: 12.5 µg/mL (≈ 27.8 µM)
M. tuberculosis H37Rv; read-out: Minimum inhibitory concentrations (MIC), M. tuberculosis H37Rv, table line r7 (1st of 5 so labelled)
  MIC: 25 µg/mL (≈ 55.5 µM)
M. tuberculosis H37Rv; read-out: Minimum inhibitory concentrations (MIC), M. tuberculosis H37Rv, table line r8 (2nd of 5 so labelled)
  MIC: 25 µg/mL (≈ 55.5 µM)
M. tuberculosis H37Rv; read-out: Minimum inhibitory concentrations (MIC), M. tuberculosis H37Rv, table line r10 (4th of 5 so labelled)
  MIC: 25 µg/mL (≈ 55.5 µM)
M. tuberculosis H37Rv; read-out: Minimum inhibitory concentrations (MIC), M. tuberculosis H37Rv, table line r11 (5th of 5 so labelled)
  MIC: 25 µg/mL (≈ 55.5 µM)
MRSE 2442-05053; [7]
  MIC: 50 µg/mL (≈ 111 µM)
K. pneumoniae ATCC 27736; Klebsiella pneumoniae, ATCC27736, inoculum size 10^6 CFU/ml, read-out: MIC
  MIC: > 100 µg/mL
E. faecium ATCC 49224; Enterococcus faecium, ATCC49224, read-out: MIC
  MIC: 50 µg/mL (≈ 111 µM)
MRSA 2441-05262; [8]
  MIC: 100 µg/mL (≈ 222 µM)
MRSE 2442-05047; [7]
  MIC: 50 µg/mL (≈ 111 µM)
MRSA 2441-05223; [8]
  MIC: > 100 µg/mL
[1]
  MIC: > 25 µg/mL
MRSA 2441-05254; [8]
  MIC: > 100 µg/mL
MRSA 2441-05129; [8]
  MIC: > 100 µg/mL
MRSE 2442-05110; [7]
  MIC: 50 µg/mL (≈ 111 µM)
P. mirabilis ATCC 4630; Proteus mirabilis, ATCC4630, inoculum size 10^6 CFU/ml, read-out: MIC
  MIC: > 100 µg/mL
E. faecalis ATCC 29212; Enterococcus faecalis, ATCC29212, inoculum size 10^6 CFU/ml, read-out: MIC
  MIC: 100 µg/mL (≈ 222 µM)
M. aurum
  MIC: > 25 µg/mL
M. avium Flamingo
  MIC: > 25 µg/mL
S. marsascens ATCC 14756; read-out: MIC
  MIC: > 100 µg/mL
MRSE 2442-05060; [7]
  MIC: 50 µg/mL (≈ 111 µM)
M. tuberculosis Kurono
  MIC: 25 µg/mL (≈ 55.5 µM)
MRSA 2441-05112; [8]
  MIC: > 100 µg/mL
[2]; [8]
  MIC: 100 µg/mL (≈ 222 µM)
MRSA 2441-05104; [8]
  MIC: 50 µg/mL (≈ 111 µM)
[3]; Enterococcus faecium, read-out: MIC
  MIC: 50 µg/mL (≈ 111 µM)
MRSE 2442-05030; [7]
  MIC: 50 µg/mL (≈ 111 µM)
P. aeruginosa ATCC 27853; Pseudomonas aeruginosa, ATCC27853, inoculum size 10^6 CFU/ml, read-out: MIC
  MIC: > 100 µg/mL
VRSA 2441-T0044; Staphylococcus aureus, VRSA
  MIC: > 100 µg/mL
[4]; [9]
  MIC: > 100 µg/mL
M. kansasii NIHJ1619
  MIC: > 25 µg/mL
S. aureus ATCC 29213; Staphylococcus aureus, ATCC29213, inoculum size 10^6 CFU/ml, read-out: MIC
  MIC: 100 µg/mL (≈ 222 µM)
[5]; Staphylococcus epidermidis, ATCC12228, inoculum size 10^6 CFU/ml, read-out: MIC
  MIC: 50 µg/mL (≈ 111 µM)
E. coli ATCC 25922; Escherichia coli, ATCC25922, inoculum size 10^6 CFU/ml, read-out: MIC
  MIC: > 100 µg/mL
[6]; [9]
  MIC: 100 µg/mL (≈ 222 µM)
M. bovis BCG Tokyo
  MIC: 25 µg/mL (≈ 55.5 µM)
M. fortuitum NIHJ1615
  MIC: > 25 µg/mL
MRSE 2442-05118; [7]
  MIC: 50 µg/mL (≈ 111 µM)
M. smegmatis Takeo
  MIC: > 25 µg/mL
VRSA 2441-T0041; [8]
  MIC: > 100 µg/mL

## COc1cccc(OC)c1C(=O)N[C@@H]1C(=O)N2[C@@H]1SC(C)(C)[C@@H]2C(=O)O [DMPPC, reference compound]
MRSE 2442-05053
  MIC: 3.13 µg/mL (≈ 8.23 µM)
K. pneumoniae ATCC 27736; inoculum size 10^6 CFU/ml
  MIC: >400 µg/mL
E. faecium ATCC 49224
  MIC: >400 µg/mL
MRSA 2441-05262
  MIC: >400 µg/mL
MRSE 2442-05047
  MIC: 400 µg/mL (≈ 1050 µM)
MRSA 2441-05223
  MIC: 125 µg/mL (≈ 329 µM)
MRSA 2441-05254
  MIC: >400 µg/mL
MRSA 2441-05129
  MIC: >400 µg/mL
MRSE 2442-05110
  MIC: 3.13 µg/mL (≈ 8.23 µM)
P. mirabilis ATCC 4630; inoculum size 10^6 CFU/ml
  MIC: >400 µg/mL
E. faecalis ATCC 29212; inoculum size 10^6 CFU/ml
  MIC: 25 µg/mL (≈ 65.7 µM)
S. marsascens ATCC 14756
  MIC: >400 µg/mL
MRSE 2442-05060
  MIC: 200 µg/mL (≈ 526 µM)
MRSA 2441-05112
  MIC: 400 µg/mL (≈ 1050 µM)
[2]
  MIC: 3.13 µg/mL (≈ 8.23 µM)
MRSA 2441-05104
  MIC: 100 µg/mL (≈ 263 µM)
[3]
  MIC: >400 µg/mL
MRSE 2442-05030
  MIC: 1.56 µg/mL (≈ 4.1 µM)
P. aeruginosa ATCC 27853; inoculum size 10^6 CFU/ml
  MIC: >400 µg/mL
VRSA 2441-T0044; VRSA 2441-T0044, low level VCM-resistant, inoculum size 10^6 CFU/ml
  MIC: >400 µg/mL
[4]
  MIC: 50 µg/mL (≈ 131 µM)
S. aureus ATCC 29213; inoculum size 10^6 CFU/ml
  MIC: 1.56 µg/mL (≈ 4.1 µM)
[5]; inoculum size 10^6 CFU/ml
  MIC: 1.56 µg/mL (≈ 4.1 µM)
E. coli ATCC 25922; inoculum size 10^6 CFU/ml
  MIC: >400 µg/mL
[6]
  MIC: 100 µg/mL (≈ 263 µM)
MRSE 2442-05118
  MIC: 200 µg/mL (≈ 526 µM)
VRSA 2441-T0041
  MIC: >400 µg/mL
